{"source": "patent US20130331764A9", "about": "“ANTICANCER AGENT DELIVERY SYSTEM USING pH-SENSITIVE METAL NANOPARTICLES” (priority 2010, published 2013)", "system": "Breast cancer cells", "experiment": "Drug test: intranuclear delivery of doxorubicin by nuclear yellow-reddish fluorescence (fluorescence microscopy)", "format": "cell-based", "protocol": "In this Example, the anticancer drug doxorubicin was employed. Doxorubicin works to induce cell death by intercalating DNA. It emits yellow-reddish fluorescence at near 600 nm. When the conjugates penetrate into cancer cells, doxorubicin is dissociated from the gold nanoparticles by hydrolysis under an acidic condition and translocates into the nucleus which thus emits yellow-reddish fluorescence.\nBreast cancer cells in test groups were incubated with the pH-sensitive gold nanoparticle-doxorubicin conjugates to induce the internalization of the conjugate (middle panel, FIG. 6).\nFor comparison, cells were incubated with doxorubicin-free pH-sensitive gold nanoparticles (left panel, FIG. 6) and with doxorubicin alone (right panel, FIG. 6) under the same condition.\nThe intranuclear delivery of doxorubicin can be qualitatively analyzed in terms of nuclear yellow-reddish fluorescence as measured by fluorescence microscopy.", "data": [{"smiles": "COc1cccc2c1C(=O)c1c(O)c3c(c(O)c1C2=O)C[C@@](O)(C(=O)CO)C[C@@H]3O[C@H]1C[C@H](N)[C@H](O)[C@H](C)O1", "note": "[doxorubicin]", "values": [{"measurement": "nuclear fluorescence of doxorubicin", "setting": "3 hours of incubation", "value": "the fluorescence was intensified"}, {"measurement": "nuclear fluorescence of doxorubicin", "setting": "one hour of incubation", "value": "started to exhibit fluorescence"}]}]}
